Measured values from the NIST ThermoML archive (doi:10.1021/acs.jced.6b00526).
± gives the expanded uncertainty stated by the source.

Columns and labels:
[1] = 100 kPa; for viscosity: Falling or rolling sphere viscometry; for mass density: Vibrating tube method
[2] = refractive index (Na D-line) (dimensionless); conditions: 100 kPa, Standard Abbe refractometry
[3] = xn = mol fraction of the nth substance listed; conditions: 100 kPa, Liquid, x1 = 1; for mass density: Vibrating tube method; for viscosity: Falling or rolling sphere viscometry
[4] = refractive index (Na D-line) (dimensionless); xn = mol fraction of the nth substance listed; conditions: 100 kPa, Liquid, Standard Abbe refractometry, x1 = 1

OCCO [1,2-ethanediol]
Liquid
Conditions	mass density, [1] [kg/m3]	refractive index, [2]	viscosity, [1] [mPa·s]
288.15 K	–	1.432 ± 0.029	–
293.15 K	1113.3 ± 4.5	1.4306 ± 0.029	21.13 ± 3.4
298.15 K	–	1.4294 ± 0.029	17.24 ± 2.8
303.15 K	1106.8 ± 4.4	1.4282 ± 0.029	14.23 ± 2.3
308.15 K	–	1.4269 ± 0.029	–
313.15 K	1099.1 ± 4.4	1.4257 ± 0.029	–
318.15 K	–	1.4244 ± 0.029	–

OCCCCO [1,4-butanediol]
Metastable liquid
Conditions	mass density, [1] [kg/m3]	refractive index, [2]	viscosity, [1] [mPa·s]
288.15 K	1018.6 ± 4.1	1.447 ± 0.029	–
293.15 K	1016.3 ± 4.1	1.4455 ± 0.029	90.7 ± 15
298.15 K	1012.9 ± 4.1	1.4441 ± 0.029	69.89 ± 11
303.15 K	1009.9 ± 4	1.4426 ± 0.029	55.24 ± 8.8
308.15 K	1006.9 ± 4	1.4412 ± 0.029	–
313.15 K	1003.2 ± 4	1.4398 ± 0.029	–
318.15 K	1000.8 ± 4	1.4384 ± 0.029	–

OCCCCCO [1,5-pentanediol]
Liquid
Conditions	mass density, [1] [kg/m3]	refractive index, [2]	viscosity, [1] [mPa·s]
288.15 K	992.2 ± 4	1.4503 ± 0.029	–
293.15 K	989.2 ± 4	1.449 ± 0.029	118.7 ± 19
298.15 K	986.2 ± 4	1.4478 ± 0.029	86.79 ± 14
303.15 K	983.2 ± 4	1.4466 ± 0.029	68.3 ± 11
308.15 K	980.3 ± 4	1.4454 ± 0.029	–
313.15 K	977.4 ± 4	1.4441 ± 0.029	–
318.15 K	974.8 ± 4	1.443 ± 0.029	–

OCCCO [propan-1,3-diol]
Liquid
Conditions	mass density, [1] [kg/m3]	refractive index, [2]	viscosity, [1] [mPa·s]
288.15 K	1056.2 ± 4.3	1.4407 ± 0.029	–
293.15 K	1053.2 ± 4.3	1.4393 ± 0.029	51.55 ± 8.3
298.15 K	1049.9 ± 4.3	1.438 ± 0.029	40.8 ± 6.5
303.15 K	1046.7 ± 4.3	1.4367 ± 0.029	32.74 ± 5.3
308.15 K	1043.5 ± 4.3	1.4353 ± 0.029	–
313.15 K	1040.4 ± 4.2	1.434 ± 0.029	–
318.15 K	1037.9 ± 4.2	1.4327 ± 0.029	–

O [water]
Liquid
Conditions	mass density, [1] [kg/m3]	refractive index, [2]	viscosity, [1] [mPa·s]
288.15 K	999.2 ± 4	1.3338 ± 0.027	–
293.15 K	998.3 ± 4	1.3331 ± 0.027	0.949 ± 0.15
298.15 K	–	1.3325 ± 0.027	0.843 ± 0.14
303.15 K	–	1.3318 ± 0.027	0.755 ± 0.12
308.15 K	–	1.3312 ± 0.027	–
313.15 K	–	1.3305 ± 0.027	–
318.15 K	990.8 ± 4	1.3299 ± 0.027	–

O [water] + OCCCCCO
Conditions	mass density, [3] [kg/m3]	refractive index, [4]	viscosity, [3] [mPa·s]
288.15 K	999.2 ± 4	1.3338 ± 0.027	–
293.15 K	998.3 ± 4	1.3331 ± 0.027	0.949 ± 0.15
298.15 K	–	1.3325 ± 0.027	0.843 ± 0.14
303.15 K	–	1.3318 ± 0.027	0.755 ± 0.12
308.15 K	–	1.3312 ± 0.027	–
313.15 K	–	1.3305 ± 0.027	–
318.15 K	990.8 ± 4	1.3299 ± 0.027	–

O [water] + OCCCCO
Conditions	mass density, [3] [kg/m3]	refractive index, [4]	viscosity, [3] [mPa·s]
288.15 K	999.2 ± 4	1.3338 ± 0.027	–
293.15 K	998.3 ± 4	1.3331 ± 0.027	0.949 ± 0.15
298.15 K	–	1.3325 ± 0.027	0.843 ± 0.14
303.15 K	–	1.3318 ± 0.027	0.755 ± 0.12
308.15 K	–	1.3312 ± 0.027	–
313.15 K	–	1.3305 ± 0.027	–
318.15 K	990.8 ± 4	1.3299 ± 0.027	–

O [water] + OCCCO
Conditions	mass density, [3] [kg/m3]	refractive index, [4]	viscosity, [3] [mPa·s]
288.15 K	999.2 ± 4	1.3338 ± 0.027	–
293.15 K	998.3 ± 4	1.3331 ± 0.027	0.949 ± 0.15
298.15 K	–	1.3325 ± 0.027	0.843 ± 0.14
303.15 K	–	1.3318 ± 0.027	0.755 ± 0.12
308.15 K	–	1.3312 ± 0.027	–
313.15 K	–	1.3305 ± 0.027	–
318.15 K	990.8 ± 4	1.3299 ± 0.027	–

O [water] + OCCO
Conditions	mass density, [3] [kg/m3]	refractive index, [4]	viscosity, [3] [mPa·s]
288.15 K	999.2 ± 4	1.3338 ± 0.027	–
293.15 K	998.3 ± 4	1.3331 ± 0.027	0.949 ± 0.15
298.15 K	–	1.3325 ± 0.027	0.843 ± 0.14
303.15 K	–	1.3318 ± 0.027	0.755 ± 0.12
308.15 K	–	1.3312 ± 0.027	–
313.15 K	–	1.3305 ± 0.027	–
318.15 K	990.8 ± 4	1.3299 ± 0.027	–
